Experimental data reported in PubChem BioAssay (NCI).
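96-well plates; 48 h exposure; 5 concentrations. Endpoints by linear interpolation between flanking doses. Not reached: highest tested concentration assigned. Here, GI50 denotes the concentration required for 50% inhibition of growth. TGI marks complete inhibition of growth.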

Legend:
Assay in all cases: NCI anticancer screen, dose series, 48 h
786-0 renal = test system: 786-0 renal
A498 renal = test system: A498 renal
ACHN renal = test system: ACHN renal
BT-549 breast = test system: BT-549 breast
CAKI-1 renal = test system: CAKI-1 renal
CCRF-CEM leukemia = test system: CCRF-CEM leukemia
COLO 205 colon = test system: COLO 205 colon
DU-145 prostate = test system: DU-145 prostate
EKVX NSCLC = test system: EKVX NSCLC
HCC-2998 colon = test system: HCC-2998 colon
HCT-116 colon = test system: HCT-116 colon
HCT-15 colon = test system: HCT-15 colon
HOP-62 NSCLC = test system: HOP-62 NSCLC
HOP-92 NSCLC = test system: HOP-92 NSCLC
HS 578T breast = test system: HS 578T breast
HT29 colon = test system: HT29 colon
KM12 colon = test system: KM12 colon
LOX IMVI melanoma = test system: LOX IMVI melanoma
M14 melanoma = test system: M14 melanoma
MALME-3M melanoma = test system: MALME-3M melanoma
MCF7 breast = test system: MCF7 breast
MDA-MB-231 breast = test system: MDA-MB-231 breast
MDA-MB-435 = test system: MDA-MB-435
NCI-H226 lung = test system: NCI-H226 lung
NCI-H23 lung = test system: NCI-H23 lung
NCI-H460 lung = test system: NCI-H460 lung
NCI-H522 lung = test system: NCI-H522 lung
NCI/ADR-RES ovarian = test system: NCI/ADR-RES ovarian
OVCAR-3 ovarian = test system: OVCAR-3 ovarian
OVCAR-4 ovarian = test system: OVCAR-4 ovarian
OVCAR-5 ovarian = test system: OVCAR-5 ovarian
RPMI-8226 leukemia = test system: RPMI-8226 leukemia
RXF 393 renal = test system: RXF 393 renal
SF-268 CNS = test system: SF-268 CNS
SF-295 CNS = test system: SF-295 CNS
SF-539 CNS = test system: SF-539 CNS
SK-MEL-2 melanoma = test system: SK-MEL-2 melanoma
SK-MEL-28 melanoma = test system: SK-MEL-28 melanoma
SK-MEL-5 melanoma = test system: SK-MEL-5 melanoma
SK-OV-3 ovarian = test system: SK-OV-3 ovarian
SN12C renal = test system: SN12C renal
SNB-19 CNS = test system: SNB-19 CNS
SNB-75 CNS = test system: SNB-75 CNS
SW-620 colon = test system: SW-620 colon
T-47D breast = test system: T-47D breast
TK-10 renal = test system: TK-10 renal
U251 CNS = test system: U251 CNS
UACC-62 melanoma = test system: UACC-62 melanoma
UO-31 renal = test system: UO-31 renal

In the case of `CCCCCCCC/C(=C\C1=C(C)C(=O)C(OC)=C(OC)C1=O)C(=O)O`, the GI50 (786-0 renal) is reported as 62.7 µM, the TGI (786-0 renal) is reported as > 100 µM and the GI50 (A498 renal) is reported as 78.8 µM. For the same compound, the TGI (A498 renal) was > 100 µM, the GI50 (ACHN renal) was 29 µM and the TGI (ACHN renal) was > 100 µM. It also gave a GI50 (BT-549 breast) of 24.2 µM, a TGI (BT-549 breast) of 54.6 µM and a GI50 (CAKI-1 renal) of 51.2 µM. For the same compound, the TGI (CAKI-1 renal) was > 100 µM, the GI50 (CCRF-CEM leukemia) was 20.2 µM and the TGI (CCRF-CEM leukemia) was 42.5 µM. For the same compound, the GI50 (COLO 205 colon) was > 100 µM, the TGI (COLO 205 colon) was > 100 µM and the GI50 (DU-145 prostate) was 25.4 µM. The TGI (DU-145 prostate) was 94 µM, the GI50 (EKVX NSCLC) was 15.8 µM and the TGI (EKVX NSCLC) was 31.6 µM. For the same compound, the GI50 (HCC-2998 colon) was 66.2 µM, the TGI (HCC-2998 colon) was > 100 µM and the GI50 (HCT-116 colon) was 16.3 µM. The TGI (HCT-116 colon) was 29.9 µM, the GI50 (HCT-15 colon) was 63.6 µM and the TGI (HCT-15 colon) was > 100 µM. For the same compound, the GI50 (HOP-62 NSCLC) was 73.2 µM, the TGI (HOP-62 NSCLC) was > 100 µM and the GI50 (HOP-92 NSCLC) was 13 µM. It also gave a TGI (HOP-92 NSCLC) of 29.6 µM, a GI50 (HS 578T breast) of 23.8 µM and a TGI (HS 578T breast) of 83.9 µM. For the same compound, the GI50 (HT29 colon) was 65.1 µM, the TGI (HT29 colon) was > 100 µM and the GI50 (KM12 colon) was 53.5 µM. The TGI (KM12 colon) was > 100 µM, the GI50 (LOX IMVI melanoma) was 19.9 µM and the TGI (LOX IMVI melanoma) was 45.5 µM. For the same compound, the GI50 (M14 melanoma) was > 100 µM, the TGI (M14 melanoma) was > 100 µM and the GI50 (MALME-3M melanoma) was 51.3 µM. The TGI (MALME-3M melanoma) was > 100 µM, the GI50 (MCF7 breast) was 22.3 µM and the TGI (MCF7 breast) was 44.8 µM. It also gave a GI50 (MDA-MB-231 breast) of 21.4 µM, a TGI (MDA-MB-231 breast) of 51.2 µM and a GI50 (MDA-MB-435) of 18.8 µM. For the same compound, the TGI (MDA-MB-435) was 37 µM, the GI50 (NCI-H226 lung) was 29.2 µM and the TGI (NCI-H226 lung) was > 100 µM. For the same compound, the GI50 (NCI-H23 lung) was 57.7 µM, the TGI (NCI-H23 lung) was > 100 µM and the GI50 (NCI-H460 lung) was 86.7 µM. For the same compound, the TGI (NCI-H460 lung) was > 100 µM, the GI50 (NCI-H522 lung) was 78.1 µM and the TGI (NCI-H522 lung) was > 100 µM. For the same compound, the GI50 (NCI/ADR-RES ovarian) was 27.1 µM, the TGI (NCI/ADR-RES ovarian) was 97.5 µM and the GI50 (OVCAR-3 ovarian) was 34.1 µM. The TGI (OVCAR-3 ovarian) was > 100 µM, the GI50 (OVCAR-4 ovarian) was 19.9 µM and the TGI (OVCAR-4 ovarian) was 36.9 µM. For the same compound, the GI50 (OVCAR-5 ovarian) was > 100 µM, the TGI (OVCAR-5 ovarian) was > 100 µM and the GI50 (RPMI-8226 leukemia) was 20.5 µM. For the same compound, the TGI (RPMI-8226 leukemia) was 49.9 µM, the GI50 (RXF 393 renal) was 23.7 µM and the TGI (RXF 393 renal) was 44.1 µM. For the same compound, the GI50 (SF-268 CNS) was 29.5 µM, the TGI (SF-268 CNS) was 70.3 µM and the GI50 (SF-295 CNS) was 43 µM. For the same compound, the TGI (SF-295 CNS) was > 100 µM, the GI50 (SF-539 CNS) was 23.2 µM and the TGI (SF-539 CNS) was 75.5 µM. The GI50 (SK-MEL-2 melanoma) was > 100 µM, the TGI (SK-MEL-2 melanoma) was > 100 µM and the GI50 (SK-MEL-28 melanoma) was 43.4 µM. The TGI (SK-MEL-28 melanoma) was > 100 µM, the GI50 (SK-MEL-5 melanoma) was 36.7 µM and the TGI (SK-MEL-5 melanoma) was > 100 µM. The GI50 (SK-OV-3 ovarian) was > 100 µM, the TGI (SK-OV-3 ovarian) was > 100 µM and the GI50 (SN12C renal) was 0.198 µM. For the same compound, the TGI (SN12C renal) was 29.2 µM, the GI50 (SNB-19 CNS) was 75.9 µM and the TGI (SNB-19 CNS) was > 100 µM. For the same compound, the GI50 (SNB-75 CNS) was 67.7 µM, the TGI (SNB-75 CNS) was > 100 µM and the GI50 (SW-620 colon) was 35 µM. For the same compound, the TGI (SW-620 colon) was > 100 µM, the GI50 (T-47D breast) was 21.9 µM and the TGI (T-47D breast) was 48.8 µM. The GI50 (TK-10 renal) was > 100 µM, the TGI (TK-10 renal) was > 100 µM and the GI50 (U251 CNS) was 19.9 µM. For the same compound, the TGI (U251 CNS) was 41.8 µM, the GI50 (UACC-62 melanoma) was 33.8 µM and the TGI (UACC-62 melanoma) was > 100 µM. The GI50 (UO-31 renal) was 40.3 µM and the TGI (UO-31 renal) was > 100 µM.
